Measured values taken from patent publication US7759345B2, “Antitumoral derivatives of ET-743” (priority 2001, dated 2010).

Assays:
A-549 = assay: Inhibition of cells growth by colorimetric assay (SRB), A-549; assay type: cell-based; conditions: SRB, 48 hours exposure; for GI50 / LC50 (concentration for 50% cell killing): Homo sapiens, A549, 48 h; for TGI A-549 / GI50: A-549; for GI50: read-out: GI50 A-549; for LC50 (concentration for 50% cell killing): read-out: LC50 A-549, A-549
Summary of the method: (§1)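 Sulforhodamine B protein-stain readout (490 nm) after 48 h drug exposure, with GI, TGI and LC parameters calculated from triplicate means. Cells seeded at 5×10^3 per well, allowed 18 h drug-free attachment; dose range 10 to 10^−8 μg/ml, vehicle DMSO/EtOH/PBS (0.5:0.5:99).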

SK-MEL-28 = assay: Inhibition of cells growth by colorimetric assay (SRB), SK-MEL-28; assay type: cell-based; conditions: SRB, 48 hours exposure; for GI50 / CC50: Homo sapiens, SK-MEL-28, 48 h; for GI50 / TGI MEL-28: MEL-28; for GI50: read-out: GI50 MEL-28; for CC50: read-out: LC50 MEL-28, MEL-28
Summary of the method: as §1

HT-29 = assay: Inhibition of cells growth by colorimetric assay (SRB), HT-29; assay type: cell-based; conditions: SRB, 48 hours exposure; for GI50 / LC50 (concentration for 50% cell killing): Homo sapiens, HT-29, 48 h; for TGI HT-29 / GI50: HT-29; for GI50: read-out: GI50 HT-29; for LC50 (concentration for 50% cell killing): read-out: LC50 HT-29, HT-29
Summary of the method: as §1

SW620 = assay: Inhibition of cells growth by colorimetric assay (SRB), SW620; assay type: cell-based; conditions: for LC50 / GI50: Homo sapiens; for LC50: SW-620, 48 h, read-out: LC50 SW-620; for GI50 / TGI SW-620: SW-620, SRB, 48 hours exposure; for GI50: read-out: GI50 SW-620
Method: (§2) 2°.—Inhibition of Cells Growth by Colorimetric Assay.
(§3) A colorimetric type of assay, using sulforhodamine B (SRB) reaction has been adapted for a quantitative measurement of cell growth and viability [following the technique described by Philip Skehan, et al. (1990), New colorimetric cytotoxicity assay for anticancer drug screening, J. Natl. Cancer Inst., 82:1107-1112]
(§4) This form of the assay employs 96 well cell culture microplates of 9 mm diameter (Faircloth, 1988; Mosmann, 1983). Most of the cell lines are obtained from American Type Culture Collection (ATCC) derived from different human cancer types.
(§5) Cells are maintained in RPMI 1640 10% FBS, supplemented with 0.1 g/l penicillin and 0.1 g/l streptomycin sulfate and then incubated at 37° C., 5% CO2 and 98% humidity. For the experiments, cells were harvested from subconfluent cultures using trypsin and resuspended in fresh medium before plating.
(§6) Cells are seeded in 96 well microtiter plates, at 5×10^3 cells per well in aliquots of 195 μl medium, and they are allowed to attach to the plate surface by growing in drug free medium for 18 hours. Afterward, samples are added in aliquots of 5 μl in a ranging from 10 to 10^−8 μg/ml, dissolved in DMSO/EtOH/PBS (0.5:0.5:99). After 48 hours exposure, the antitumor effect are measured by the SRB methodology: cells are fixed by adding 50 μl of cold 50% (wt/vol) trichloroacetic acid (TCA) and incubating for 60 minutes at 4° C. Plates are washed with deionized water and dried. One hundred μl of SRB solution (0.4% wt/vol in 1% acetic acid) is added to each microtiter well and incubated for 10 minutes at room temperature. Unbound SRB is removed by washing with 1% acetic acid. Plates are air dried and bound stain is solubilized with Tris buffer. Optical densities are read on a automated spectrophotometric plate reader at a single wavelength of 490 nm.
(§7) The values for mean+/−SD of data from triplicate wells are calculated. Some parameters for cellular responses can be calculated: GI=growth inhibition, TGI=total growth inhibition (cytostatic effect) and LC=cell killing (cytotoxic effect).
(§8) Obtained results may predict the usefulness of a certain drug as a potential cancer treatment. For this technique, compounds which show GI50 values smaller than 10 μg/ml are selected to continue with further studies. GI50's data allow to predict that not only could a drug be cystostatic, but also it could have a potential in terms of tumor reduction.

DU-145 = assay: Inhibition of cells growth by colorimetric assay (SRB), DU-145; assay type: cell-based; conditions: SRB, 48 hours exposure; for GI50 / CC50: Homo sapiens, DU-145, 48 h; for TGI DU-145 / GI50: DU-145; for GI50: read-out: GI50 DU-145; for CC50: read-out: LC50 DU-145, DU-145
Summary of the method: as §1

MCF-7 = assay: Inhibition of cells growth by colorimetric assay (SRB), MCF-7; assay type: cell-based; conditions: for CC50 / GI50: Homo sapiens; for CC50: MCF7, 48 h, read-out: LC50 MCF; for GI50: MCF7, read-out: GI50 MCF; for GI50 / TGI MCF: MCF, SRB, 48 hours exposure
Method: as §2, §3, §4, §5, §6, §7, §8

MDA-MB-231 = assay: Inhibition of cells growth by colorimetric assay (SRB), MDA-MB-231; assay type: cell-based; conditions: for CC50 / GI50: Homo sapiens; for CC50: MDA-MB-231, 48 h, read-out: LC50 MB-231; for GI50: MDA-MB-231, read-out: GI50 MB-231; for GI50 / TGI MB-231: MB-231, SRB, 48 hours exposure
Method: as §2, §3, §4, §5, §6, §7, §8

A-498 = assay: Inhibition of cells growth by colorimetric assay (SRB), A-498; assay type: cell-based; conditions: for TGI A-498 / GI50: SRB, 48 hours exposure, A-498; for LC50 / GI50: Homo sapiens; for LC50: A498, 48 h, read-out: LC50 A-498; for GI50: A498, read-out: GI50 A-498
Method: as §2, §3, §4, §5, §6, §7, §8

Source text for Heart: (§9) Toxicity was asssessed by the methods reported in Toxicology in Vitro, 15 (2001) 571-577, J. Luber Narod et al.: “Evaluation of the use of in vitro methodolodies as tools for screening new compounds for potential in vivo toxicity”.
Source text for Kidney: as §9
Source text for Liver: as §9
Source text for Myelo: as §9
Source text for Skeletal: as §9

SMILES | TGI A-549 (A-549) | GI50 (A-549) [nM] | LC50 (concentration for 50% cell killing) (A-549) [nM] | GI50 (SK-MEL-28) [nM] | CC50 (SK-MEL-28) [nM] | TGI MEL-28 (SK-MEL-28) | TGI HT-29 (HT-29) | GI50 (HT-29) [nM] | LC50 (concentration for 50% cell killing) (HT-29) [nM] | LC50 (SW620) [nM] | GI50 (SW620) [nM] | TGI SW-620 (SW620) | TGI DU-145 (DU-145) | GI50 (DU-145) [nM] | CC50 (DU-145) [nM] | CC50 (MCF-7) [nM] | GI50 (MCF-7) [nM] | TGI MCF (MCF-7) | CC50 (MDA-MB-231) [nM] | GI50 (MDA-MB-231) [nM] | further results
COc1cc2c(cc1OC(=O)CCc1ccccc1)CCN[C@]21CS[C@@H]2c3c(OC(C)=O)c(C)c4c(c3[C@H](COC1=O)N1C2[C@H]2c3c(cc(C)c(OC)c3O)C[C@@H]([C@@H]1O)N2C)OCO4 (some centres unmarked) [Compound 72] | 3.36E-09 | 1.12 | 7.83 | 2.24 | 7.83 | 3.36E-09 | 7.83E-09 | 2.24 | 11.2 | 11.2 | 2.24 | 3.36E-09 | 3.36E-09 | 2.24 | 8.95 | 11.2 | 2.24 | 4.47E-09 | 11.2 | 2.24 | TGI MB-231 (MDA-MB-231): 3.36E-09; TGI A-498 (A-498): 4.47E-09; LC50 (A-498): 11.2 nM; GI50 (A-498): 2.24 nM; Toxicity Data Liver (Liver): 1.55E-08; Toxicity Data Heart (Heart): 3.78E-08; Toxicity Data Myelo (Myelo): 2.15E-08; Toxicity Data Skeletal (Skeletal): 1.32E-08; Toxicity Data Kidney (Kidney): 1.85E-08
COc1cc2c(cc1OC(=O)CCCl)CCN[C@]21CS[C@@H]2c3c(OC(C)=O)c(C)c4c(c3[C@H](COC1=O)N1C2[C@H]2c3c(cc(C)c(OC)c3O)C[C@@H]([C@@H]1O)N2C)OCO4 (some centres unmarked) [Compound 73] | 2.35E-09 | 0.352 | 5.87 | 0.822 | 3.52 | 9.39E-10 | 7.04E-09 | 0.939 | 10.6 | 9.39 | 0.352 | 1.17E-09 | 3.52E-10 | 0.235 | 0.939 | 11.7 | 0.704 | 3.52E-09 | 1.17 | 0.235 | TGI MB-231 (MDA-MB-231): 4.69E-11; TGI A-498 (A-498): 7.04E-10; LC50 (A-498): 3.52 nM; GI50 (A-498): 0.352 nM
